# Test results as given in patent US20200017495A1, “NOVEL HETEROCYCLIC COMPOUNDS AND THEIR USE IN PREVENTING OR TREATING BACTERIAL INFECTIONS” (priority 2017, published 2020).
# Where two headings read alike, the source gives them in different places.
# Tests used:
# Type in all cases: cell-based
# [1] = tested on: Proteus mirabilis (PMI) isolates; experiment: microbe, parasite or virus in culture
# Method in brief: (§1)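 Broth microdilution in cation-adjusted Mueller-Hinton broth, inoculum 5.10^5 CFU/mL, 16-20 h at 35° C in ambient air, on genotyped isolates. Compound MIC, alone or with an antibacterial, taken visually as lowest concentration preventing growth; antibacterial MIC determined at each compound concentration.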
# [2] = tested on: Providencia stuartii (PST) isolates; experiment: MIC of compounds alone and combined with antibacterials, broth microdilution (CLSI)
# Method in brief: (§2)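 Compounds tested alone or with an antibacterial against genotyped isolates; DMSO dilutions spotted, then log-phase inoculum at 5.10^5 CFU/mL in cation-adjusted Mueller-Hinton broth added. Incubation 16-20 h at 35° C in ambient air. MIC read visually as lowest concentration preventing growth; for combinations, antibacterial MIC determined at each compound concentration.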
# [3] = tested on: Salmonella typhimurium (STY) isolates; experiment: as above
# Method in brief: as §2
# [4] = tested on: Klebsiella oxytoca (KOX) isolates; experiment: as above
# Method in brief: as §1
# [5] = tested on: Enterobacter cloacae (ECL) isolates; experiment: as above
# Method in brief: as §1
# [6] = tested on: Morganella morganii (MMO) isolates; experiment: as above
# Method in brief: as §1
smiles,measurement,setting,value
"CO/N=C(\C(=O)N[C@@H]1C(=O)N2C(C(=O)O)=C(COC(N)=O)CS[C@H]12)c1ccco1 [FUR, Cefuroxime]",MIC,"[1]; strain PMI UFR82, genotype CMY-2",16 µg/mL
same,MIC,"[1]; strain PMI UFR120, genotype TEM-1, SHV-11, CTX-M-14",>256 µg/mL
same,MIC,"[1]; strain PMI UFR121, genotype TEM-1, TEM-52",>256 µg/mL
same,MIC,"[1]; strain PMI UFR122, genotype TEM-1, CTX-M-15",>256 µg/mL
same,MIC,"[1]; strain PMI UFR123, genotype CTX-M-1",>256 µg/mL
same,MIC,"[1]; strain PMI UFR124, genotype CTX-M-2",>256 µg/mL
same,MIC,"[1]; strain PMI UFR125, genotype CTX-M-71",>256 µg/mL
same,MIC,"[1]; strain PMI UFR126, genotype TEM-2, PER-1",>256 µg/mL
same,MIC,"[1]; strain PMI UFR127, genotype VEB-1",>256 µg/mL
same,MIC,"[1]; strain PMI UFR129, genotype TEM-1, VEB-6",>256 µg/mL
same,MIC,"[1]; strain PMI UFR130, genotype CMY-2",8 µg/mL
same,MIC,"[1]; strain PMI UFR237, genotype VEB-6",>256 µg/mL
same,MIC,"[2]; strain PST UFR94, genotype CTX-M-14",>256 µg/mL
same,MIC,"[2]; strain PST UFR95, genotype TEM-24",128 µg/mL
same,MIC,"[2]; strain PST UFR235, genotype VEB-1",256 µg/mL
same,MIC,"[3]; strain STY S3371, genotype OXA-1",32 µg/mL
same,MIC,"[4]; strain KOX UFR21, genotype TEM-1, CTX-M-15, OXA-48",>256 µg/mL
same,MIC,"[4]; strain KOX UFR173, genotype OXY2-2",>256 µg/mL
same,MIC,"[4]; strain KOX UFR223, genotype SHV-11, OXA-48",8 µg/mL
same,MIC,"[4]; strain KOX UFR224, genotype CTX-M-15, OXA-48",>256 µg/mL
same,MIC,"[5]; strain ECL 2185D, genotype OXA-163",>256 µg/mL
same,MIC,"[5]; strain ECL 190310, genotype AmpC",>256 µg/mL
same,MIC,"[5]; strain ECL 190408, genotype TEM-1, CTX-M-15, OXA-1",>256 µg/mL
same,MIC,"[5]; strain ECL 200138, genotype AmpC",>256 µg/mL
same,MIC,"[5]; strain ECL 200322, genotype TEM-1, CTX-M-15, OXA-1",>256 µg/mL
same,MIC,"[5]; strain ECL 260033, genotype AmpC",>256 µg/mL
same,MIC,"[5]; strain ECL 260253, genotype TEM-1, KPC-3",>256 µg/mL
same,MIC,"[5]; strain ECL 260323, genotype AmpC",>256 µg/mL
same,MIC,"[5]; strain ECL 260508, genotype TEM-1, CTX-M-15",>256 µg/mL
same,MIC,"[5]; strain ECL NEM146383, genotype AmpC",>256 µg/mL
same,MIC,"[5]; strain ECL P99, genotype AmpC",>512 µg/mL
same,MIC,"[5]; strain ECL UFR12, genotype CTX-M-9, OXA-48",>256 µg/mL
same,MIC,"[5]; strain ECL UFR13, genotype TEM-1, SHV-12, CTX-M-9, OXA-48",>256 µg/mL
same,MIC,"[5]; strain ECL UFR14, genotype TEM-1, SHV-12, CTX-M-15, DHA-1, OXA-1, OXA-48",>256 µg/mL
same,MIC,"[5]; strain ECL UFR60, genotype TEM-1, CTX-M-15, KPC-2",>256 µg/mL
same,MIC,"[5]; strain ECL UFR70, genotype TEM-1, CTX-M-15, CMY-2, OXA-1, Porin loss",>256 µg/mL
same,MIC,"[5]; strain ECL UFR84, genotype TEM-1, AmpC, OXA-1",>256 µg/mL
same,MIC,"[5]; strain ECL UFR85, genotype TEM-1, CTX-M-15, AmpC",>256 µg/mL
same,MIC,"[5]; strain ECL UFR194, genotype OXA-48",32 µg/mL
same,MIC,"[5]; strain ECL UFR195, genotype TEM-1, CTX-M-15, OXA-1, OXA-48",>256 µg/mL
same,MIC,"[5]; strain ECL UFR196, genotype TEM-1, CTX-M-15, OXA-1, OXA-48",>256 µg/mL
same,MIC,"[5]; strain ECL UFR197, genotype TEM-1, CTX-M-15, OXA-1, OXA-48",>256 µg/mL
same,MIC,"[5]; strain ECL UFR198, genotype TEM-1, SHV-12, CTX-M-15, DHA-1, OXA-1, OXA-48",>256 µg/mL
same,MIC,"[5]; strain ECL UFR200, genotype TEM-1, SHV-12, KPC-2",>256 µg/mL
same,MIC,"[6]; strain MMO 200321, genotype TEM-1, CTX-M-15, OXA-1",>256 µg/mL
same,MIC,"[6]; strain MMO UFR144, genotype TEM-1, CTX-M-15",>256 µg/mL
same,MIC,"[6]; strain MMO UFR240, genotype CTX-M-9",>256 µg/mL
same,MIC,"[6]; strain MMO UFR241, genotype TEM-1, CTX-M-15",>256 µg/mL
same,MIC,"[6]; strain MMO UFR242, genotype TEM-52",>256 µg/mL
same,MIC,"[6]; strain MMO UFR243, genotype DHA-1",128 µg/mL
same,MIC,"[6]; strain MMO UFR244, genotype DHA-1",64 µg/mL
same,MIC,"[6]; strain MMO UFR245, genotype DHA-1",128 µg/mL
same,MIC,"[6]; strain MMO UFR246, genotype DHA-1",128 µg/mL
same,MIC,"[6]; strain MMO UFR247, genotype DHA-1",>256 µg/mL
"COCC1=C(C(=O)O)N2C(=O)[C@@H](NC(=O)/C(=N\OC)c3csc(N)n3)[C@H]2SC1 [POD, Cefpodoxime]",MIC,"[1]; Proteus mirabilis, strain PMI UFR82, genotype CMY-2, read-out: MIC",64 µg/mL
same,MIC,"[1]; Proteus mirabilis, strain PMI UFR122, genotype TEM-1, CTX-M-15, read-out: MIC",64 µg/mL
same,MIC,"[1]; Proteus mirabilis, strain PMI UFR127, genotype VEB-1, read-out: MIC",128 µg/mL
same,MIC,"[1]; Proteus mirabilis, strain PMI UFR130, genotype CMY-2, read-out: MIC",128 µg/mL
same,MIC,"[2]; Providencia stuartii, strain PST UFR94, genotype CTX-M-14, read-out: MIC",32 µg/mL
same,MIC,"[2]; Providencia stuartii, strain PST UFR95, genotype TEM-24, read-out: MIC",16 µg/mL
same,MIC,"[2]; Providencia stuartii, strain PST UFR235, genotype VEB-1, read-out: MIC",128 µg/mL
same,MIC,"[3]; Salmonella enterica, TYPHIMURIUM",4 µg/mL
same,MIC,"[4]; Klebsiella oxytoca, strain KOX UFR223, genotype SHV-11, OXA-48, read-out: MIC",0.5 µg/mL
same,MIC,"[5]; Enterobacter cloacae, strain ECL P99, genotype AmpC, read-out: MIC",> 512 µg/mL
same,MIC,"[5]; Enterobacter cloacae, strain ECL UFR12, genotype CTX-M-9, OXA-48, read-out: MIC",128 µg/mL
same,MIC,"[5]; Enterobacter cloacae, strain ECL UFR194, genotype OXA-48, read-out: MIC",16 µg/mL
same,MIC,"[6]; Morganella morganii, strain MMO UFR243, genotype DHA-1, read-out: MIC",64 µg/mL
same,MIC,"[6]; Morganella morganii, strain MMO UFR244, genotype DHA-1, read-out: MIC",16 µg/mL
same,MIC,"[6]; Morganella morganii, strain MMO UFR245, genotype DHA-1, read-out: MIC",64 µg/mL
same,MIC,"[6]; Morganella morganii, strain MMO UFR246, genotype DHA-1, read-out: MIC",64 µg/mL
same,MIC,"[6]; Morganella morganii, strain MMO UFR247, genotype DHA-1, read-out: MIC",64 µg/mL
